Experimental data from patent US20100280061A1, “NOVEL ANALGESIC THAT BINDS FILAMIN A” (priority 2009, published 2010).

Columns and labels:
filamin A = filamin A (Homo sapiens, UniProt P21333); conditions: read-out: affinity of binding to filamin A; cited from earlier work
mouse = test: Mouse hot-water tail-flick test; type: in vivo; conditions: orally administered
Description: The mouse “tail flick” test was used to assay the relative antinociceptive activity of compositions containing a compound to be assayed.
This assay was substantially that disclosed by Xie et al., 2005 J. Neurosci 25:409-416.
The mouse hot-water tail-flick test was performed by placing the distal third of the tail in a water bath maintained at 52° C. The latency until tail withdrawal from the bath was determined and compared among the treatments. A 10 second cutoff was used to avoid tissue damage. Data are converted to percentage of antinociception by the following formula: (response latency−baseline latency)/(cutoff−baseline latency)×100 to generate dose-response curves. […] Relative potency was determined as a ratio of the A50 values.

mu opiate receptor (MOR) = molecular target: T1, mu opiate receptor (MOR) (Rattus norvegicus, UniProt P33535); test: [35S]GTPγS binding assay using striatal membranes (MOR agonist activity); type: biochemical; set-up: MOR agonist activity, [35S]GTPγS binding to Gαo, 0.1 μM / MOR agonist activity, [35S]GTPγS binding to Gαo, 1 μM / MOR agonist activity, [35S]GTPγS binding to Gαo, 1 μM + BFNA: reference not given here; conditions: for MOR agonist activity, [35S]GTPγS binding to Gαo, 0.1 μM: 0.1 μM compound; for MOR agonist activity, [35S]GTPγS binding to Gαo, 0.1 μM / MOR agonist activity, [35S]GTPγS binding to Gαo, 1 μM: striatal membranes; for MOR agonist activity, [35S]GTPγS binding to Gαo, 1 μM + BFNA: 1 μM compound + 1 μM β-funaltrexamine; for MOR agonist activity, [35S]GTPγS binding to Gαo, 1 μM: 1 μM compound
T1 construct: from tissue; host or cells: striatal tissue (membrane preparation)
Description: To assess the mu opiate receptor (MOR) agonist activity of positive compounds from the FLNA screening, compounds were tested in a [^35S]GTPγS binding assay using striatal membranes. Our previous study has shown that in striatal membranes, activation of MOR leads to an increase in [^35S]GTPγS binding to Gαo (Wang et al., 2005 Neuroscience 135:247-261).
Striatal tissue was homogenized in 10 volumes of ice cold 25 mM HEPES buffer, pH 7.4, which contained 1 mM EGTA, 100 mM sucrose, 50 μg/ml leupeptin, 0.04 mM PMSF, 2 μg/ml soybean trypsin inhibitor and 0.2% 2-mercaptoethanol. The homogenates were centrifuged at 800×g for 5 minutes and the supernatants were centrifuged at 49,000×g for 20 minutes. The resulting pellets were suspended in 10 volume of reaction buffer, which contained 25 mM HEPES, pH 7.5, 100 mM NaCl, 50 μg/ml leupeptin, 2 μg/ml soybean trypsin inhibitor, 0.04 mM PMSF and 0.02% […].
The resultant striatal membrane preparation (200 μg) was admixed and maintained (incubated) at 30° C. for 5 minutes in reaction buffer as above that additionally contained 1 mM MgCl2 and 0.5 nM [^35S]GTPγS (0.1 μCi/assay, PerkinElmer Life and Analytical Sciences) in a total volume of 250 μl and continued for 5 minutes in the absence or presence of 0.1-10 μM of an assayed compound of interest. The reaction was terminated by dilution with 750 μl of ice-cold reaction buffer that contained 20 mM MgCl2 and 1 mM EGTA and immediate centrifugation at 16,000×g for 5 minutes.
The resulting pellet was solubilized by sonicating for 10 seconds in 0.5 ml of immunoprecipitation buffer containing 0.5% digitonin, 0.2% sodium cholate and 0.5% NP-40. Normal rabbit serum (1 μl) was added to 1 ml of lysate and incubated at 25° C. for 30 minutes. Nonspecific immune complexes were removed by incubation with 25 μl of protein A/G-conjugated agarose beads at 25° C. for 30 minutes followed by centrifugation at 5,000×g at 4° C. for 5 minutes. The supernatant was divided and separately incubated at 25° C. for 30 minutes with antibodies raised against Gαo proteins (1:1,000 dilutions).
The immunocomplexes so formed were collected by incubation at 25° C. for 30 minutes with 40 μl of agarose-conjugated protein A/G beads and centrifugation at 5,000×g at 4° C. for 5 minutes. The pellet was washed and suspended in buffer containing 50 mM Tris-HCl, pH 8.0, and 1% NP-40. The radioactivity in the suspension was determined by liquid scintillation spectrometry. […] DAMGO (H-Tyr-D-Ala-Gly-N-MePhe-Gly-OH; 1 or 10 μM) was used as a positive control.

[1] = molecular target: Bn-VAKGL pentapeptide of filamin A (FLNA) (Homo sapiens, UniProt P21333); test: FITC-NLX-based FLNA screening assay (FLNA peptide binding assay); conditions: 10 nM FITC-NLX
Description: The final assay volume is 100 μl.
Compounds are tested in triplicate or quadruplicate.

[2] = tested on: MOR-Gs/olf and MOR-Go coupling; test: Relative Gs/Go switching in organotypic striatal slice cultures (MOR-G protein coupling); type: cell-based, rat; conditions: for Go (MOR in anti-Gαo immunoprecipitates), average / Gs/Go-Coupled Ratio, average / Gs/olf (MOR in anti-Gαs/olf immunoprecipitates), average: striatal slice culture
Description: The experiments described herein were carried out on organotypic striatal slices from male Sprague Dawley rats (200 to 250 g) purchased from Taconic (Germantown, N.Y.). Rats were housed two per cage and maintained on a regular 12-hour light/dark cycle in a climate-controlled room with food and water available ad libitum and sacrificed by rapid decapitation. All data are presented as mean±standard error of the mean. Treatment effects were evaluated by two-way ANOVA followed by Newman-Keul's test for multiple comparisons. Two-tailed Student's t test was used for post hoc pairwise comparisons. The threshold for significance was p<0.05.
Striatal slices ([…]) were prepared using a Mcllwain tissue chopper (Mickle Laboratory Engineering Co., Surrey, UK). Slices were carefully transferred to sterile, porous culture inserts (0.4 μm, Millicell-CM) using the rear end of a glass Pasteur pipette. Each culture insert unit contained 2 slices and was placed into one well of the 12-well culture tray. […] The pH value was adjusted to 7.2 with HEPES buffer.
Cultures were first incubated for 2 days to minimize the impact of injury from slice preparation. Incubator settings throughout the experiment were 36° C. with 5% CO2.
Slices were returned to culture medium with normal serum after each drug exposure. Tissues were harvested 16 hours after the last drug exposure by centrifugation.
For determination of MOR-G protein coupling, slices were homogenized to generate synaptic membranes. […] Following centrifugation, striatal membrane lysates were immunoprecipitated with immobilized anti-Gαs/olf or -Gαo conjugated with immobilized protein G-agarose beads. The level of MOR in anti-Gαs/olf or -Gαo immunoprecipitates was determined by Western blotting using specific anti-MOR antibodies.

[3] = 32 mg/kg, at about 20-30 minutes

T1 sequence (P33535 whole entry): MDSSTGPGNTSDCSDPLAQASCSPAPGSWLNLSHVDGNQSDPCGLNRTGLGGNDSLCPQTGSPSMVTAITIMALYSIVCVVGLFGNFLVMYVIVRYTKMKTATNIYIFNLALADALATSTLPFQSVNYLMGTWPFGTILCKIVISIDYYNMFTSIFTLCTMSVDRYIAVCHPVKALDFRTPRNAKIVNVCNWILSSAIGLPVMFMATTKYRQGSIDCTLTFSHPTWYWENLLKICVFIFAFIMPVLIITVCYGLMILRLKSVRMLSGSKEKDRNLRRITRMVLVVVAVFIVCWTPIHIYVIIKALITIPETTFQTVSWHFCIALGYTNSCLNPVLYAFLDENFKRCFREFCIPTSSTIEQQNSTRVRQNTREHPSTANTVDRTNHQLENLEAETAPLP
filamin A, sequence (P21333 whole entry): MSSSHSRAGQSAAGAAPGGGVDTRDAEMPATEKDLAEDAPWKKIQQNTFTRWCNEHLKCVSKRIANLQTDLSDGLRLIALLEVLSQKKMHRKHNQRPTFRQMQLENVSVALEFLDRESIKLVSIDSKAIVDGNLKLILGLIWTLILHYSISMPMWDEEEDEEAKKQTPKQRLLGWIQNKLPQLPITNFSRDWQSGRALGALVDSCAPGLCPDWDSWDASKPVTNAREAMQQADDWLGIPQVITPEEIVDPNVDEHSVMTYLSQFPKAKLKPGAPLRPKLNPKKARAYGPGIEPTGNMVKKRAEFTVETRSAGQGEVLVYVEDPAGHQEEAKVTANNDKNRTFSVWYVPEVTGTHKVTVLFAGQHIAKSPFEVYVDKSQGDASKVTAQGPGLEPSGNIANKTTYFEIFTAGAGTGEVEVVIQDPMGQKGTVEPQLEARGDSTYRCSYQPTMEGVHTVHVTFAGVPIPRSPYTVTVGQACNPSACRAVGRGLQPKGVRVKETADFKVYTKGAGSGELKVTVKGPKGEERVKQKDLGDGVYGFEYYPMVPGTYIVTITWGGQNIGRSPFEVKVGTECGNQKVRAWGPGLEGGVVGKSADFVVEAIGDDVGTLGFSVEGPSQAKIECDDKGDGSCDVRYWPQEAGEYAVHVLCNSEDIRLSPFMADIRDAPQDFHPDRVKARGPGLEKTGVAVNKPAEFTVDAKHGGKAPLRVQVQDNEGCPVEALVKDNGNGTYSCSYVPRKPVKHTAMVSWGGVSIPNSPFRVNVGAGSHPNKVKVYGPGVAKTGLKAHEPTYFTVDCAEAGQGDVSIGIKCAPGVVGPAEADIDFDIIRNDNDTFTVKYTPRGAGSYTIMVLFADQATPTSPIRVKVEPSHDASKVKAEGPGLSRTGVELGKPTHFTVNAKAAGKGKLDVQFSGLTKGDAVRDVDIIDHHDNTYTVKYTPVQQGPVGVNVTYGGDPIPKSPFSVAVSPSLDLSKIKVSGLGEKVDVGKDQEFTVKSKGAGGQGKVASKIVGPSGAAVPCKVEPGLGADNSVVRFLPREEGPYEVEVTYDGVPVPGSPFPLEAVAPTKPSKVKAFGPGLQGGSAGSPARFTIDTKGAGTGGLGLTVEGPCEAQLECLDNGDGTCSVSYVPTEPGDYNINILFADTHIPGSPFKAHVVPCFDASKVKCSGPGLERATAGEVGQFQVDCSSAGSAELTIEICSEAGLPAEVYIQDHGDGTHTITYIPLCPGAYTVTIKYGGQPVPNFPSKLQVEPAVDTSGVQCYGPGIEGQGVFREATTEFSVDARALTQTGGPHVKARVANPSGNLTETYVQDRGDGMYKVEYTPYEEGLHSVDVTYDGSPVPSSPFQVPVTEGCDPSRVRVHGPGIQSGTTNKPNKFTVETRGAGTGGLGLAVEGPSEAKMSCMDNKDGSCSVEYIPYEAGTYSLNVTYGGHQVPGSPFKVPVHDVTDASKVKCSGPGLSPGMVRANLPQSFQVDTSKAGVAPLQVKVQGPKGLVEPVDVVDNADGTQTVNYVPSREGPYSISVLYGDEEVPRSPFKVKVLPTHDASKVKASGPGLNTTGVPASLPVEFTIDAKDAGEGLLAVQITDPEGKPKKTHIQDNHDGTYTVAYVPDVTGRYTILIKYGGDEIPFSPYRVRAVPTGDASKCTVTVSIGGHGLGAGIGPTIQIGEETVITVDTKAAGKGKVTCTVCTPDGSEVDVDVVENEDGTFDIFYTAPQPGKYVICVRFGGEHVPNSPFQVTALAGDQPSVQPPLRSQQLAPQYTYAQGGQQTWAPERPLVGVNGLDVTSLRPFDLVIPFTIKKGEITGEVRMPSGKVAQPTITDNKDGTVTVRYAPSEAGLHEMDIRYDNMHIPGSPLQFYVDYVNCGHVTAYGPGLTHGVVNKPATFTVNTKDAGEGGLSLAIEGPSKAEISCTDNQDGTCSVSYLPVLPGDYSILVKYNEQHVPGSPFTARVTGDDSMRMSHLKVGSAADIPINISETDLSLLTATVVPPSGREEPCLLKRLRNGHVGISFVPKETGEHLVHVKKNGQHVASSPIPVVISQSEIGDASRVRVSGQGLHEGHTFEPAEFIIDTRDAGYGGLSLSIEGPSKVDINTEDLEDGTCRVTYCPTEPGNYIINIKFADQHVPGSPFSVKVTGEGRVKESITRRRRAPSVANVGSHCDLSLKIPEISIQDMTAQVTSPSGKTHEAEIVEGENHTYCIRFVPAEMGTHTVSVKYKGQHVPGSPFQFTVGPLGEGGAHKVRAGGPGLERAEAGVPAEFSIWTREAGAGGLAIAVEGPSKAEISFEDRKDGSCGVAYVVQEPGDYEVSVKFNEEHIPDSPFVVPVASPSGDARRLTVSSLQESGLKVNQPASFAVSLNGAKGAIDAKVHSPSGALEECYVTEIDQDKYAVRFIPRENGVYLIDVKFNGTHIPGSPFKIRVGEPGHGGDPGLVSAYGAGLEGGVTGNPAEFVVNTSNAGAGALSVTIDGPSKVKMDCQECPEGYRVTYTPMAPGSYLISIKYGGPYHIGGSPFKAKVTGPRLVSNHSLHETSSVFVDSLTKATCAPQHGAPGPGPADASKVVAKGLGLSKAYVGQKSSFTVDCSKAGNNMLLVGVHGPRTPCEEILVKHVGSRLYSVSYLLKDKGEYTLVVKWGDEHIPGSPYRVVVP

Structure (SMILES)	MOR agonist activity, [35S]GTPγS binding to Gαo, 0.1 μM (mu opiate receptor (MOR)) [%]	MOR agonist activity, [35S]GTPγS binding to Gαo, 1 μM + BFNA (mu opiate receptor (MOR)) [%]	MOR agonist activity, [35S]GTPγS binding to Gαo, 1 μM (mu opiate receptor (MOR)) [%]	Percent inhibition of FITC-NLX binding, 0.01 μM ([1]; 0.01 μM compound) [%]	Percent inhibition of FITC-NLX binding, 0.1 μM ([1]; 0.1 μM compound) [%]	Percent inhibition of FITC-NLX binding, 1 μM ([1]; 1 μM compound) [%]	further results
C=CCN1CC[C@]23c4c5ccc(O)c4O[C@H]2C(=O)CC[C@@]3(O)[C@H]1C5 [NLX, naloxone]							Kd (filamin A): ~4 pM
CN1CC[C@]23c4c5ccc(O)c4O[C@H]2[C@@H](O)C=C[C@H]3[C@H]1C5 [morphine, reference compound]							mean maximum antinoniception amount (mouse; 56 mg/kg, at about 20 minutes): about 43%; antinoniceptive effect (mouse; same dose (32 mg/kg), at thirty minutes): about 30%
COCOc1ccc(CCC(=O)CC2c3c(cc4c(c3OC)OCO4)CC[N+]2(C)C)cc1.[I-] (centres unmarked) [B0040]	146.0	55.3	243.3	40.0	53.1	57.1	mean maximum antinoniception amount (mouse; [3]): about 25%; Go (MOR in anti-Gαo immunoprecipitates), average ([2]; 10 μM): 1419.8; Gs/Go-Coupled Ratio, average ([2]; 10 μM): 0.598; Gs/olf (MOR in anti-Gαs/olf immunoprecipitates), average ([2]; 10 μM): 839.0; Go (MOR in anti-Gαo immunoprecipitates), average ([2]; 100 μM): 1472.6; Gs/Go-Coupled Ratio, average ([2]; 100 μM): 0.332; Gs/olf (MOR in anti-Gαs/olf immunoprecipitates), average ([2]; 100 μM): 867.2
COc1cccc(OC)c1CC(=O)CC1c2c(cc3c(c2OC)OCO3)CC[N+]1(C)C.[I-] (centres unmarked) [B0036]	61.4	65.1	120.6	46.6	52.8	62.1	mean maximum antinoniception amount (mouse; [3]): about 20%
COc1ccc2c3c1O[C@H]1C(=O)CC[C@@]4(O)[C@@H](C2)N(C)CC[C@]314 [Oxycodone, oxycodone, reference compound]							switch of mu opioid receptors from Go to Gs coupling ([2]; 7 days of twice daily 1-hour exposures, organotypic striatal slice cultures): switch from Go to Gs coupling
O=C1CC[C@@]2(O)[C@H]3Cc4ccc(O)c5c4[C@@]2(CCN3CC2CC2)[C@H]1O5 [NTX, naltrexone]							Kd (filamin A): ~4 pM
COc1ccccc1CC(=O)CC1c2c(cc3c(c2OC)OCO3)CC[N+]1(C)C (centres unmarked) [compound 5009]	128.5	87.5	270.4				mean maximum antinoniception amount (mouse; [3]): about 30%
COc1c2c(cc3c1C(CC(O)Cc1ccccc1C)N(C)CC3)OCO2 (centres unmarked) [B0054]	157.8	111.0	186.7				inhibition at 0.01 µM ([1]; read-out: Percent inhibition of FITC-NLX binding, 0.01 μM compound): 25.6%; inhibition at 0.1 µM ([1]; read-out: Percent inhibition of FITC-NLX binding, 0.1 μM compound): 32.6%; inhibition at 1 µM ([1]; read-out: Percent inhibition of FITC-NLX binding, 1 μM compound): 43.3%
COc1c2c(cc3c1C(CC(=O)Cc1ccccc1Cl)[N+](C)(C)CC3)OCO2.[I-] (centres unmarked) [B0039]	171.8	78.3	290.5	43.3	45.7	50.9	
COc1c2c(cc3c1C(CC(=O)c1ccc(O)c(C)c1)[N+](C)(C)CC3)OCO2 (centres unmarked) [B0002]	165.7	101.4	219.0	40.2	46.4	55.0	
COc1cccc(CCC(=O)CC2c3c(cc4c(c3OC)OCO4)CC[N+]2(C)C)c1 (centres unmarked) [B0034]	122.5	41.8	235.2	49.1	54.2	59.1	
COc1cc(CC(=O)CC2c3c(cc4c(c3OC)OCO4)CC[N+]2(C)C)cc(OC)c1OC (centres unmarked) [B0008]	148.3	46.0	264.1	35.5	40.3	52.8	
